Results: the NIST ThermoML archive (doi:10.1016/j.jct.2012.03.027)

Experiments:
[1] = Molar enthalpy of transition or fusion; details: Crystal; DSC
[2] = for vapor or sublimation pressure: Closed cell (Static) method; for Triple point temperature: DTA
[3] = molar heat capacity at constant pressure; details: 298.15 K, 101.33 kPa, Drop calorimetry

OCC(F)(F)C(F)(F)C(F)(F)C(F)(F)C(F)(F)C(F)(F)C(F)(F)C(F)(F)C(F)(F)F [1H,1H-perfluoro-1-decanol]
Details | Molar enthalpy of transition or fusion [kcal/mol]
[1] | 3.8

[2], Crystal
Details | vapor or sublimation pressure [kPa]
303.92 K | 0.00452
308 K | 0.00755
312.98 K | 0.01315
318.07 K | 0.02289
323.07 K | 0.03765
327.88 K | 0.06457
332.84 K | 0.1045
337.79 K | 0.1714
342.75 K | 0.2677
347.71 K | 0.414
352.65 K | 0.6247
355.65 K | 0.8008
358.15 K | 0.97

Details | Triple point temperature [K]
[2], Crystal | 358.5

OCC(F)(F)C(F)(F)C(F)(F)C(F)(F)C(F)(F)C(F)(F)C(F)(F)C(F)(F)C(F)(F)C(F)(F)F [1H,1H-perfluoroundecan-1-ol]
Details | Molar enthalpy of transition or fusion [kcal/mol]
[1] | 5.35

[2], Crystal
Details | vapor or sublimation pressure [kPa]
310.53 K | 0.00219
313.02 K | 0.00299
315.51 K | 0.00402
318 K | 0.00537
320.48 K | 0.00715
323 K | 0.00968
325.47 K | 0.01321
327.95 K | 0.01724
330.42 K | 0.02207
332.87 K | 0.02909
335.42 K | 0.03815
337.85 K | 0.04977
340.35 K | 0.06415
342.81 K | 0.08275
345.3 K | 0.1064
347.8 K | 0.1361

Details | Triple point temperature [K]
[2], Crystal | 374

OCC(F)(F)C(F)(F)C(F)(F)C(F)(F)C(F)(F)C(F)(F)F [2,2,3,3,4,4,5,5,6,6,7,7,7-tridecafluoro-1-heptanol]
Details | molar heat capacity at constant pressure [J/K/mol]
[3], Liquid | 476.8

[2], Liquid
Details | vapor or sublimation pressure [kPa]
275.55 K | 0.01786
278.02 K | 0.02308
280.53 K | 0.03001
282.99 K | 0.03804
285.49 K | 0.04858
287.97 K | 0.06227
290.46 K | 0.07837
292.95 K | 0.09912
295.45 K | 0.1247
297.97 K | 0.1587
300.43 K | 0.1946
302.94 K | 0.2431
305.4 K | 0.294
307.91 K | 0.3632
310.39 K | 0.4344
312.88 K | 0.5339
315.35 K | 0.6248
317.87 K | 0.7553

OCC(F)(F)C(F)(F)C(F)(F)C(F)(F)C(F)(F)C(F)(F)C(F)(F)F [2,2,3,3,4,4,5,5,6,6,7,7,8,8,8-pentadecafluoro-1-octanol]
Crystal
Details | Triple point temperature [K] | molar heat capacity at constant pressure [J/K/mol]
[2] | 318.2 | –
[3] | – | 468.6

Details | Molar enthalpy of transition or fusion [kcal/mol]
[1] | 2.84

[2]
Details | vapor or sublimation pressure [kPa]
268.27 K, Crystal | 0.00104
273.24 K, Crystal | 0.00201
278.21 K, Crystal | 0.00388
283.17 K, Crystal | 0.00714
288.15 K, Crystal | 0.01272
293.15 K, Crystal | 0.02273
295.64 K, Crystal | 0.03033
298.14 K, Crystal | 0.03911
300.61 K, Crystal | 0.05177
303.13 K, Crystal | 0.06648
305.62 K, Crystal | 0.08724
308.1 K, Crystal | 0.1113
310.56 K, Crystal | 0.1412
313.08 K, Crystal | 0.1815
315.52 K, Crystal | 0.2288
318.05 K, Crystal | 0.2936
320.52 K, Liquid | 0.3615
323.01 K, Liquid | 0.4351
325.52 K, Liquid | 0.524
328.01 K, Liquid | 0.6236
330.49 K, Liquid | 0.7457
332.97 K, Liquid | 0.871
335.47 K, Liquid | 1.048
337.97 K, Liquid | 1.233
339.44 K, Liquid | 1.359

OCC(F)(F)C(F)(F)C(F)(F)C(F)(F)C(F)(F)C(F)(F)C(F)(F)C(F)(F)F [2,2,3,3,4,4,5,5,6,6,7,7,8,8,9,9,9-heptadecafluoro-1-nonanol]
Details | Molar enthalpy of transition or fusion [kcal/mol]
[1] | 3.97

[2]
Details | vapor or sublimation pressure [kPa]
275.71 K, Crystal | 0.00048
278.17 K, Crystal | 0.00067
283.16 K, Crystal | 0.00128
288.15 K, Crystal | 0.0025
293.14 K, Crystal | 0.00477
298.11 K, Crystal | 0.00866
303.13 K, Crystal | 0.01568
308.1 K, Crystal | 0.02727
313.09 K, Crystal | 0.04767
318.06 K, Crystal | 0.07933
323.03 K, Crystal | 0.13
342.99 K, Liquid | 0.8017
344 K, Liquid | 0.8571
345.48 K, Liquid | 0.9447
347.97 K, Liquid | 1.11
350.45 K, Liquid | 1.3
351.45 K, Liquid | 1.383

Details | Triple point temperature [K]
[2], Crystal | 342.2
